The values below come from patent US10561638B2, “Methods for treating dependence” (Biotie Therapies, Inc., priority 2007, dated 2020).

“Also recorded” adds a separate entry of the source.

In one data set the test system is CD-1 (ICR) mice. The data set can be described thus: Locomotor activity in mice, intraperitoneal. Type of data set: in vivo. Conditions: i.p.; nepicastat 3-100, SKF-102698 30 and 100, cocaine 30 mg/kg. The text has this: Adult male CD-1 (ICR) mice (30-40 g on study day) were housed in groups of eight under a normal light/dark cycle with lights on between 0900 hr and 2100 hr. Food and water were allowed ad libitum. All animals were naive to drug treatment and behavioral testing. Each animal was only used once.
Locomotor activity was monitored in an automated 14 station activity monitoring system (San Diego Instrument Co.). Each station consisted of a clear perspex cage (25 cm×45 cm×20 cm; w×1×h) placed within a metal frame containing 3 photoemmitors and 3 photodetectors spaced equally along the length of the wall. The bottom of each cage was lightly covered in clean cedar bedding.
The mice were placed in the testing room at least 1 hr prior to testing. The mice were placed individually into one of the activity cages and allowed to explore for 30 min. […] Following a 60 minute pre-treatment period, motor activity was monitored for 180 minutes. Activity counts and ambulations (defined as a break of 2 consecutive photobeams) for each animal were recorded every 30 minutes.
A repeated measures two-way analysis of variance (ANOVA) was performed using the overall ranked data (nonparametric technique) to test for the overall effects of treatment, time interval and treatment by time interval interaction. […]

The test system of data set [1] is tissue norepinephrine and dopamine levels. The data set can be described thus: Tissue catecholamines in SHRs after single dose (dose response, time course). Type of data set: in vivo, spontaneously hypertensive rats. The settings on record: for dose with significant change in dopamine/norepinephrine ratio: 6 h after single oral dose. How it is done: Significant changes in these parameters were also observed in the left ventricle of male Sprague-Dawley rats 6 hours after the second of two i.v. injections (15 mg/kg) given 12 hours apart. The 24 hour time course of tissue catecholamines was studied in male SHRs following oral administration of either 10 or 30 mg/kg, respectively. The increase in the dopamine/norepinephrine ratio was significant at 1 hour, and was long lasting (12 hours at 10 mg/kg, mesenteric artery, and 24 hours at 30 mg/kg, left ventricle).
In SHRs there were significant changes in the dopamine/norepinephrine ratio in the mesenteric artery at doses of 0.3 mg/kg, in the left ventricle at 3.0 mg/kg, and in the cerebral cortex at 10 mg/kg. […] In a second dose-response study in SHRs, three doses were administered 12 hours apart at either 3.0, 10, 30, or 100 mg/kg, and tissue was harvested six hours after the third dose. Nepicastat caused a significant dose dependent decrease in norepinephrine (10 mg/kg) and increase in dopamine (3.0 mg/kg) and the dopamine/norepinephrine ratio (3.0 mg/kg) in the left ventricle and mesenteric artery. The effects of nepicastat on dopamine and norepinephrine concentrations, and the dopamine/norepinephrine ratio in the cerebral cortex were significant only at 30 and 100 mg/kg.
The purpose of this study was to determine the 24 hours time course of the effects of nepicastat (10 mg/kg) on dopamine and norepinephrine levels in the mesenteric artery following a single oral dose in spontaneously hypertensive rats. Catecholamine levels were measured at 1, 2, 4, 6, 8, 12, 16, and 24 hours after a single oral administration of either nepicastat (10 mg/kg) or vehicle (dH2O; 10 ml/kg).
Sixteen-17 week old, male spontaneous hypertensive rats (SHRs) weighing 300-400 grams were allowed food and water ad libitum. Animals were weighed and randomly assigned, the afternoon before the study, to one of the following treatment groups (n=9 per group): a single oral administration of nepicastat at 10 mg/kg or a single oral administration of vehicle (10 ml/kg) to be sacrificed at 1, 2, 4, 6, 8, 12, 16, or 24 hours.
Animals were dosed […] the morning of sacrifice. At 1, 2, 4, 6, 8, 12, 16 and 24 hours following administration, 9 treated animals and 9 vehicle animals were anesthetized with halothane, decapitated, and the left ventricle and mesenteric artery were rapidly harvested and weighed. The mesenteric artery was put in 0.5 ml of 0.4M perchloric acid in a centrifuge tube and the left ventricle put into an empty cryotube. Both tissues were immediately frozen in liquid nitrogen and stored at −70° C. Mesenteric artery catecholamine levels were determined using HPLC with electrochemical detection. At the time of decapitation, plasma samples were taken by draining blood from the carcass into a tube containing heparin, and centrifuging at 4° C.
Each treatment group was compared to vehicle at each time point. A two way analysis of variance (ANOVA) with effects TRT, HARVEST and their interaction was performed. A one way ANOVA with factor TRT was performed for each harvest time. Pairwise analyses between treated and vehicle animals, at each time point, were carried out using Fisher's LSD strategy to control the experiment-wise error rate. […] Levels were marginally (0.05<p<0.1) lower at the 6 hour time point.

Data set [2] has as its system normotensive Wistar-Kyoto rats. The data set is described as follows: Blood pressure in conscious, restrained Wistar-Kyoto rats. Type of data set: in vivo. The settings on record: 10 mg/kg. From the text:
To summarize together, nepicastat causes a decrease in blood pressure in both SHRs and normotensive rats, though the antihypertensive effect is more pronounced in SHRs.

The next data set relates to pithed SHRs. The data set is described as follows: Pressor response to pre-ganglionic nerve stimulation in pithed SHRs. Type of data set: in vivo, spontaneously hypertensive rats. How it is done: The in vivo hemodynamic activity of nepicastat was further assessed in conscious, restrained SHRs, a model having high sympathetic drive to cardiovascular tissues. Hemodynamic study in SHRs. Male SHRs (15-16 week old) were used in the study. The animals were lightly anesthetized with ether and the left femoral artery and vein were catheterized for measurement of blood pressure and drug administration, respectively. The animals were placed in restrainers and allowed to recover for 30-40 min. After obtaining baseline measurements, the animals were treated, orally, with either vehicle or the appropriate dose of nepicastat and hemodynamic parameters were continuously recorded for 4 h. The animals were then anesthetized with pentobarbital, placed on a heating pad (37° C.) and ventilated with a Harvard rodent ventilator. After administration of atropine (1 mg/kg, iv) and tubocurarine (1 mg/kg, iv), the animals were pithed through the orbit of the eye with a stainless steel rod. The […] rod was stimulated electrically with 1 ms pulses of 80V at different frequencies (0.15, 0.45, 1.5, 5, 15 Hz) to obtain frequency-pressor response curves. […] The response was slow in onset, reaching its plateau in 3-4 h. […] Following this study, the rats were pithed and the effects of nepicastat on the pressor response to pre-ganglionic nerve stimulation (PNS) of the spinal cord were evaluated 5 h after dosing.

Turning to `Fc1cc(F)cc(Cn2cc[nH]c2=S)c1` [SKF-102698, reference compound], the “total activity counts and ambulations vs vehicle” value with CD-1 (ICR) mice was “no significant differences; also recorded: no significant effects”.
With `Cl.NCc1c[nH]c(=S)n1[C@H]1CCc2c(F)cc(F)cc2C1` [nepicastat, (S)-5-Aminomethyl-1-(5,7-difluoro-1,2,3,4-tetrahydronaphth-2-yl)-2,3-dihydro-2-thioxo-1H-imidazole hydrochloride], the “duration of increase in dopamine/norepinephrine ratio” value in data set [1] (10 mg/kg, mesenteric artery) turned out to be 12 h; in data set [1] (30 mg/kg, left ventricle) it was 24 h. Moreover, the “time at which increase in dopamine/norepinephrine ratio was significant” value in data set [1] (10 or 30 mg/kg oral) was determined as 1 h. Besides, the “doses inhibiting DBH” value was in the range of 60 to 100 mg/kg/day in data set [1] (cerebral cortex of rats); 1 to 6 mg/kg/day in data set [1] (left ventricle and mesenteric artery of rats). For the same molecule, the entries for the “dose with significant change in dopamine/norepinephrine ratio” value in data set [1] (cerebral cortex), in data set [1] (left ventricle) and in data set [1] (mesenteric artery) were 10 mg/kg, 3.0 mg/kg and 0.3 mg/kg, respectively. Further, in data set [1] (heart and mesenteric artery, rats), the “oral dose with significant evidence for DBH inhibition” value was determined as 6 mg/kg/day. The “dopamine/norepinephrine ratio vs vehicle” value in data set [1] (mesenteric artery, 10 mg/kg po, 1, 2, 4, 6 and 12 hour) is “significantly (p<0.05) greater”. The “dopamine levels vs vehicle” value in data set [1] (mesenteric artery, 10 mg/kg po, 2 and 6 hr) was “significantly (p<0.05) higher”. Moreover, the “norepinephrine, dopamine and ratio” value in data set [1] (mesenteric artery, 10 mg/kg po, 16 and 24 h harvest) was “no changes in any of the three parameters”. The norepinephrine vs vehicle entry in data set [1] (mesenteric artery, single 10 mg/kg po, 1-24 h) is recorded as “significantly (p<0.05) lower than vehicle only at the 4 hr time point”. Also, the “decrease in blood pressure 4 hours after dosing” value in data set [2] is on record as −13 mmHg. In the data set on pithed SHRs (3 mg/kg p.o., 5 hours after dosing), the “hypertensive and tachycardic responses to preganglionic nerve stimulation” value is “significantly attenuated the hypertensive and tachycardic responses”. Further, the “heart rate response to PNS” value with pithed SHRs (5 h after dosing) is “not significantly affected”. Besides, in the data set with pithed SHRs (5 h after dosing), the “maximum shift in the frequency-pressor response curve” value is recorded as around 5 fold.
